Measurements taken from patent publication US7923461B2, “TNF-α production inhibitors” (Santen Pharmaceutical Co., Ltd., priority 2000, dated 2011).

Row | melting point | SMILES
1 | 116.9 to 118.9 °C | O=C(NCCCc1ccncc1)N(CCCCC(F)(F)F)CCC12CC3CC(CC(C3)C1)C2 [Compound No. 1-106, 1-[2-(1-Adamantyl)ethyl]-3-[3-(4-pyridyl)propyl]-1-(5,5,5-trifluoropentyl)urea]
2 | 123 to 124.8 °C | O=C(NCCCc1ccncc1)N(CCCc1ccccc1)C(c1ccccc1)c1ccccc1 [Compound No. 1-93, 1-Diphenylmethyl-1-(3-phenylpropyl)-3-[3-(4-pyridyl)propyl]urea]
3 | 120.5 to 131.7 °C | CC(C)CCN(CCC(C)C)C(=O)NCCCc1ccncc1.Cl
4 | 124 to 136 °C | CCCCCN(CCC12CC3CC(CC(C3)C1)C2)C(=O)NCC(Cc1ccncc1)Cc1ccncc1 [Compound No. 1-110, 1-[2-(1-Adamantyl)ethyl]-3-[2,2-bis(4-pyridylmethyl)ethyl]-1-pentylurea]
5 | 93 to 98 °C | CCCCCN(CCC12CC3CC(CC(C3)C1)C2)C(=O)NCCC(C)c1ccncc1 (centres unmarked) [Compound No. 1-104, 1-[2-(1-Adamantyl)ethyl]-1-pentyl-3-[3-(4-pyridyl)butyl]urea]
6 | ~ 100 °C | Cl.Cl.NN(CCC12CC3CC(CC(C3)C1)C2)C(=O)NCCCc1ccncc1
7 | 99 to 109 °C | CN(CCC12CC3CC(CC(C3)C1)C2)C(=O)NCCCc1ccncc1 [Compound No. 1-40, 1-[2-(1-Adamantyl)ethyl]-1-methyl-3-[3-(4-pyridyl)propyl]urea]
8 | 79.8 to 80.4 °C | CCCCN(CCCC12CC3CC(CC(C3)C1)C2)C(=O)NCCCc1ccncc1 [Compound No. 1-122, 1-[3-(1-Adamantyl)propyl]-1-butyl-3-[3-(4-pyridyl)propyl]urea]
9 | 64 to 74.5 °C | Cl.O=C1CCN(CCC2CCCCC2)C(=O)N1Cc1ccncc1
10 | 142.6 to 145 °C | O=C(NCCCc1ccncc1)N(CCCC(F)(F)F)CCC12CC3CC(CC(C3)C1)C2 [Compound No. 1-105, 1-[2-(1-Adamantyl)ethyl]-3-[3-(4-pyridyl)propyl]-1-(4,4,4-trifluorobutyl)urea]
11 | 133.7 to 137 °C | CCCCCN(CCC12CC3CC(CC(C3)C1)C2)C(=O)CNCCc1ccncc1.Cl.Cl
12 | 155 to 158 °C | O=C(NCCCc1ccncc1)N(CCC12CC3CC(CC(C3)C1)C2)CC1CCCC1 [Compound No. 1-21, 1-[2-(1-Adamantyl)ethyl]-1-cyclopentylmethyl-3-[3-(4-pyridyl)propyl]urea]
13 | 92.7 to 93.7 °C | CCN(CCCCC12CC3CC(CC(C3)C1)C2)C(=O)NCCCc1ccncc1 [Compound No. 1-124, 1-[4-(1-Adamantyl)butyl]-1-ethyl-3-[3-(4-pyridyl)propyl]urea]
14 | 49 to 50 °C | CCCCCN(CCc1ccccc1)C(=O)NCC(C)Cc1ccncc1 (centres unmarked) [Compound No. 1-115, 3-[2-Methyl-3-(4-pyridyl)propyl]-1-pentyl-1-phenethylurea]
15 | 99 to 103 °C | CCCN(CCC12CC3CC(CC(C3)C1)C2)C(=O)NCCCc1ccncc1 [Compound No. 1-16, 1-[2-(1-Adamantyl)ethyl]-1-propyl-3-[3-(4-pyridyl)propyl]urea]
16 | 84.4 to 85.7 °C | CCCCCN(CCC12CC3CC(CC(C3)C1)C2)C(=O)NCCCc1ccccn1 [Compound No. 1-83, 1-[2-(1-Adamantyl)ethyl]-1-pentyl-3-[3-(2-pyridyl)propyl]urea]
17 | 88.9 to 90 °C | O=C(NCCCc1ccncc1)N(CCCC12CC3CC(CC(C3)C1)C2)CC(F)(F)F [Compound No. 1-123, 1-[3-(1-Adamantyl)propyl]-3-[3-(4-pyridyl)propyl]-1-(2,2,2-trifluoroethyl)urea]
18 | 107 to 112 °C | O=C(N(CCCc1ccncc1)Cc1ccccc1)N(CCCc1ccccc1)C1CCCCC1 [Compound No. 1-60, 1-Cyclohexyl(phenyl)methyl-1-(3-phenylpropyl)-3-[3-(4-pyridyl)propyl]urea]
19 | 82.5 to 84.9 °C | CCCCCN(CCC12CC3CC(CC(C3)C1)C2)C(=O)NCC(C)(C)Cc1ccncc1 [Compound No. 1-135, 1-[2-(1-Adamantyl)ethyl]-3-[2,2-dimethyl-3-(4-pyridyl)propyl]-1-pentylurea]
20 | 143 to 145.5 °C | O=C(NCCCc1ccncc1)N(C1CCCCC1)C1CCCCC1 [Compound No. 1-61, 1,1-Dicyclohexyl-3-[3-(4-pyridyl)propyl]urea]
21 | 108 to 109 °C | C=C(C)CN(CCC12CC3CC(CC(C3)C1)C2)C(=O)NCCCc1ccncc1 [Compound No. 1-33, 1-[2-(1-Adamantyl)ethyl]-1-(2-methyl-2-propenyl)-3-[3-(4-pyridyl)propyl]urea]
22 | 76 to 79 °C | O=C(NCCCc1ccncc1)N1CCc2ccccc2C1 [Compound No. 1-5, N-[3-(4-Pyridyl)propyl]-1,2,3,4-tetrahydroisoquinoline-2-carboxamide]

Row | melting point | SMILES
23 | 101.4 to 102.4 °C | CN(CCN(CCC12CC3CC(CC(C3)C1)C2)C(=O)NCCCc1ccncc1)C(=O)CC(C)(C)C [Compound No. 10-6, 1-[2-(1-Adamantyl)ethyl]-1-[2-[N-(3,3-dimethylbutyryl)-N-methylamino]ethyl]-3-[3-(4-pyridyl)propyl]urea]
24 | 120 to 122.5 °C | Cl.O=C(NCCCc1ccncc1)N(CCC12CC3CC(CC(C3)C1)C2)CCC12CC3CC(CC(C3)C1)C2
25 | 133.9 to 134.5 °C | CCCCCN(CCC12CC3CC(CC(C3)C1)C2)C(=O)NCCNc1ccncc1 [Compound No. 1-126, 1-[2-(1-Adamantyl)ethyl]-1-pentyl-3-[2-(4-pyridylamino)ethyl]urea]
26 | 112.5 to 114.5 °C | CCCCCN(CCC12CC3CC(CC(C3)C1)C2)C(=O)NCCc1cccnc1 [Compound No. 1-76, 1-[2-(1-Adamantyl)ethyl]-1-pentyl-3-[2-(3-pyridyl)ethyl]urea]
27 | 106 to 115 °C | CCN(CCC12CC3CC(CC(C3)C1)C2)C(=O)NCCCc1ccncc1 [Compound No. 1-41, 1-[2-(1-Adamantyl)ethyl]-1-ethyl-3-[3-(4-pyridyl)propyl]urea]
28 | 132 to 132.5 °C | CCCN(CC(=O)NC12CC3CC(CC(C3)C1)C2)C(=O)NCCCc1ccncc1 [Compound No. 1-132, 1-(1-Adamantyl)aminocarbonylmethyl-1-propyl-3-[3-(4-pyridyl)propyl]urea]
29 | 170 °C | Cl.O=C1CCN(CCCc2ccncc2)C(=O)N1CCC12CC3CC(CC(C3)C1)C2
30 | 96.5 to 108 °C | CCCCCN(CCC12CC3CC(CC(C3)C1)C2)C(=O)NCc1ccncc1 [Compound No. 1-74, 1-[2-(1-Adamantyl)ethyl]-1-pentyl-3-(4-pyridyl)methylurea]
31 | 108 to 115.5 °C | O=C(NCCCc1ccncc1)N(CCC12CC3CC(CC(C3)C1)C2)C1CC1 [Compound No. 1-19, 1-[2-(1-Adamantyl)ethyl]-1-cyclopropyl-3-[3-(4-pyridyl)propyl]urea]
32 | 161.8 to 164.4 °C | Cl.O=C(NCc1ccncc1)N(CCC1CCCCC1)Cc1cccs1
33 | 148 to 149 °C | CCCN(CCCC12CC3CC(CC(C3)C1)C2)C(=O)NCCCc1ccncc1.O=P(O)(O)O [Compound No. 13-10, 1-[3-(1-Adamantyl)propyl]-1-propyl-3-[3-(4-pyridyl)propyl]urea phosphate]
34 | 87.5 to 92 °C | CCCCCN(CCC12CC3CC(CC(C3)C1)C2)C(=O)NCc1ccccn1 [Compound No. 1-72, 1-[2-(1-Adamantyl)ethyl]-1-pentyl-3-(2-pyridyl)methylurea]
35 | 47 to 52 °C | CN(CCN(CCC12CC3CC(CC(C3)C1)C2)C(=O)NCCCc1ccncc1)C(=O)OC(C)(C)C(Cl)(Cl)Cl [Compound No. 10-10, 1-[2-(1-Adamantyl)ethyl]-1-[2-[N-(1,1-dimethyl-2,2,2-trichloroethoxycarbonyl)-N-methylamino]ethyl]-3-[3-(4-pyridyl)propyl]urea]
36 | 88.5 to 101.5 °C | CCCCCN(CCC12CC3CC(CC(C3)C1)C2)C(=O)NCc1cccnc1 [Compound No. 1-73, 1-[2-(1-Adamantyl)ethyl]-1-pentyl-3-(3-pyridyl)methylurea]
37 | 96 to 98 °C | CCCN(CCCC12CC3CC(CC(C3)C1)C2)C(=O)NCc1ccncc1 [Compound No. 1-128, 1-[3-(1-Adamantyl)propyl]-1-propyl-3-(4-pyridyl)methylurea]
38 | 72 to 77 °C | CCCCCN(CCC12CC3CC(CC(C3)C1)C2)C(=O)NCC(CC)Cc1ccncc1 (centres unmarked) [Compound No. 1-108, 1-[2-(1-Adamantyl)ethyl]-1-pentyl-3-[2-(4-pyridylmethyl)butyl]urea]
39 | 81.1 to 84.1 °C | CC(CNC(=O)N(CCC(F)(F)F)CCC12CC3CC(CC(C3)C1)C2)Cc1ccncc1 (centres unmarked) [Compound No. 1-117, 1-[2-(1-Adamantyl)ethyl]-3-[2-methyl-3-(4-pyridyl)propyl]-1-(3,3,3-trifluoropropyl)urea]
40 | 64.7 to 65.8 °C | CCCCCN(CCC1CCCCC1)C(=O)NCc1ccncc1 [Compound No. 1-52, 1-(2-Cyclohexylethyl)-1-pentyl-3-(4-pyridyl)methylurea]
41 | 96.3 to 99.4 °C | CCCCCN(CCC12CC3CC(CC(C3)C1)C2)C(=O)NCCc1ccc(O)cc1
42 | 80 to 100 °C | CCCCCN(CCC12CC3CC(CC(C3)C1)C2)C(=O)NCCc1ccccn1 [Compound No. 1-75, 1-[2-(1-Adamantyl)ethyl]-1-pentyl-3-[2-(2-pyridyl)ethyl]urea]
43 | 90 to 118 °C | CCCCCN(CCC12CC3CC(CC(C3)C1)C2)C(=O)NC/C=C/c1ccncc1 [Compound No. 1-112, (E)-1-[2-(1-Adamantyl)ethyl]-1-pentyl-3-[3-(4-pyridyl)-2-propenyl]urea]
44 | 119.5 to 121.5 °C | CCCCCCN(CCC12CC3CC(CC(C3)C1)C2)C(=O)NCCCc1ccncc1 [Compound No. 1-29, 1-[2-(1-Adamantyl)ethyl]-1-hexyl-3-[3-(4-pyridyl)propyl]urea]
